Source: patent US20030069285A1 (Recordati Ireland Limited, priority 2001, published 2003)

Assays:
[1] = Thermogravimetric analysis (TG and TGFTIR); type: physicochemical; conditions: heated in nitrogen stream at 10° C./min; only CO2 is present
Method: Each sample weighing 2 to 5 mg was placed in an aluminum crucible of an apparatus PERKIN ELMER TGS-2 Thermogravimetric System (Perkin-Elmer International, Inc., Rotkreuz, Switzerland) and heated in nitrogen stream at a rate of 10° C./min. The thermogravimetric analysis together with an IR analysis in Fourier transform was carried out according to the following operating modes. Each sample weighing 2 to 5 mg was placed in an aluminum crucible of an apparatus Netzsch Thermomicrobalance TG209 (Netzsch Gerätebau, Seib, Germany) coupled with a spectrometer in Fourier transform BRUKER FTIR Vector 22 (Spectrospin, Fällanden, Switzerland) and heated in nitrogen stream at a rate of 10° C./min.

isolated rat aorta = conditions: in vitro; even after the drug has been removed from the environment of the aortic tissue for 6 hours; cited from earlier work

Row | Compound | temperature above which degradation was observed [1] | isolated rat aorta response to high K+ (isolated rat aorta)
1 | lercanidipine hydrochloride-terbutyl methyl ether | above 180 °C | –
2 | COC(=O)C1=C(C)NC(C)=C(C(=O)OC(C)(C)CN(C)CCC(c2ccccc2)c2ccccc2)C1c1cccc([N+](=O)[O-])c1 (centres unmarked) [Lercanidipine, methyl 1,1,N-trimethyl-N-(3,3-diphenylpropyl)-2-aminoethyl 1,4-dihydro-2,6-dimethyl-4-(3-nitrophenyl)pyridine-3,5-dicarboxylate] | – | attenuated
